Reference: the supplement of paper PMC10331698
± gives the standard deviation of the averaged measurements.

Legend:
Assay in all cases: level (log10 ratio to DMSO vehicle control); higher = higher biomarker level / cell amount than vehicle control
Conditions in all cases: in DMSO
[1] = compound: O=S(=O)(O)C(F)(F)C(F)(F)C(F)(F)C(F)(F)C(F)(F)C(F)(F)C(F)(F)C(F)(F)F [Perfluorooctanesulfonic acid]
Method: (§1)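 BioMAP Diversity Plus panel of 12 human primary cell co-culture systems (3C, 4H, LPS, SAg, BT, BF4T, BE3C, CASM3C, HDF3CGF, KF3CT, MyoF, Mphg). Compounds were added 1 h before stimulation and left for 24 h (MyoF 48 h; BT 72 h for soluble read-outs or 6 d for IgG). Biomarkers were read by ELISA, cytotoxicity by SRB, PBMC viability and proliferation by Alamar Blue. Each well value was divided by the mean of 8 DMSO control wells on the same plate and log10 transformed; duplicate blinded samples were tested at 4 concentrations.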

[2] = compound: NC(=O)C(F)(F)C(F)(F)C(F)(F)C(F)(F)C(F)(F)C(F)(F)C(F)(F)F [Perfluorooctanamide]
Method: as §1

[3] = compound: O=C(O)C(F)(F)OC(F)(F)C(F)(F)OC(F)(F)C(F)(F)C(F)(F)C(F)(F)F [Perfluoro-3,6-dioxadecanoic acid]
Method: as §1

[4] = compound: O=C(O)C(F)(F)C(F)(F)C(F)(F)C(=O)O [Hexafluoroglutaric acid]
Method: as §1

[5] = compound: C=C(C)C(=O)OCC(F)(F)C(F)(F)C(F)(F)C(F)(F)C(F)(F)C(F)(F)C(F)(F)F
Method: as §1

[6] = compound: CC(C)(C)C(=O)CC(=O)C(F)(F)C(F)(F)C(F)(F)F [(Heptafluorobutanoyl)pivaloylmethane]
Method: as §1

[7] = compound: O=S(=O)(O)C(F)(F)C(F)(F)C(F)(F)C(F)(F)C(F)(F)C(F)(F)C(F)(F)C(F)(F)F [Potassium perfluorooctanesulfonate]
Method: as §1

| Test System | level (log10) ([1]; 6700 nM) | level (log10) ([1]; 20000 nM) | level (log10) ([1]; 60000 nM) | level (log10) ([2]; 6700 nM) | level (log10) ([2]; 20000 nM) | level (log10) ([2]; 60000 nM) | level (log10) ([3]; 6700 nM) | level (log10) ([3]; 20000 nM) | level (log10) ([3]; 60000 nM) | level (log10) ([4]; 6700 nM) | level (log10) ([4]; 20000 nM) | level (log10) ([4]; 60000 nM) | level (log10) ([5]; 6700 nM) | level (log10) ([5]; 20000 nM) | level (log10) ([6]; 6700 nM) | level (log10) ([6]; 20000 nM) | level (log10) ([6]; 60000 nM) | level (log10) ([7]; 6700 nM) | level (log10) ([7]; 20000 nM) | level (log10) ([7]; 60000 nM) |
| --- | --- | --- | --- | --- | --- | --- | --- | --- | --- | --- | --- | --- | --- | --- | --- | --- | --- | --- | --- | --- |
| 4H:CCL26/Eotaxin-3 | -0.014 ± 0.0014 | -0.032 ± 0.0028 | -0.0595 ± 0.0064 | 0.033 ± 0.055 | 0.021 ± 0.031 | 0.0275 ± 0.04 | 0.0145 ± 0.005 | -0.0035 ± 0.039 | 0.032 ± 0.048 | 0.0155 ± 0.035 | 0.0155 ± 0.013 | 0.0235 ± 0.0078 | 0.0385 ± 0.043 | 0.0315 ± 0.047 | -0.002 ± 0.0014 | 0.004 ± 0.0057 | 0.0145 ± 0.016 | 0.0085 ± 0.015 | -0.0495 ± 0.021 | -0.0665 ± 0.037 |
| LPS:CD106/VCAM-1 | -0.009 ± 0.0085 | -0.017 ± 0.011 | -0.023 ± 0.027 | -0.0025 ± 0.012 | 0.006 ± 0.0028 | 0.0245 ± 0.00071 | 0.002 ± 0.037 | -0.0175 ± 0.035 | -0.092 ± 0.014 | -0.006 ± 0.016 | -0.015 ± 0.024 | -0.005 ± 0.0071 | -0.021 ± 0.05 | -0.0085 ± 0.046 | -0.0315 ± 0.047 | -0.042 ± 0.017 | -0.021 ± 0.034 | 0.0025 ± 0.019 | -0.004 ± 0.016 | -0.0125 ± 0.04 |
| LPS:SRB | -0.003 ± 0.0085 | -0.003 ± 0.0028 | 0 | 0.006 ± 0.013 | 0.001 ± 0.0099 | -0.0015 ± 0.011 | -0.01 ± 0.014 | -0.0025 ± 0.005 | -0.105 ± 0.069 | -0.0025 ± 0.011 | -0.0065 ± 0.016 | 0.01 ± 0.025 | -0.0025 ± 0.0078 | -0.0045 ± 0.005 | -0.006 | -0.0095 ± 0.0021 | -0.028 ± 0.0099 | -0.009 ± 0.018 | -0.007 ± 0.021 | -0.001 ± 0.0057 |
| 3C:CXCL9/MIG | 0.0035 ± 0.00071 | -0.002 ± 0.0057 | 0.009 ± 0.0057 | 0.01 ± 0.0042 | 0.008 ± 0.014 | 0.031 ± 0.0014 | -0.015 ± 0.02 | -0.0185 ± 0.019 | -0.002 ± 0.017 | -0.014 ± 0.0085 | -0.005 ± 0.0042 | -0.0075 ± 0.0035 | -0.001 ± 0.017 | 0.015 ± 0.0099 | -0.007 ± 0.016 | -0.0045 ± 0.013 | 0.004 ± 0.0071 | 0.0085 ± 0.0092 | -0.003 ± 0.0042 | 0.013 ± 0.013 |
| BT:sIL-17A | 0.13 ± 0.18 | 0.106 ± 0.098 | 0.0295 ± 0.025 | 0.122 ± 0.016 | 0.0965 ± 0.0035 | 0.034 ± 0.26 | 0.034 ± 0.12 | 0.045 ± 0.22 | -0.147 ± 0.065 | 0.02 ± 0.073 | -0.0205 ± 0.21 | -0.0585 ± 0.12 | 0.0535 ± 0.073 | -0.0375 ± 0.22 | -0.0075 ± 0.013 | -0.0315 ± 0.053 | -0.194 ± 0.18 | 0.023 ± 0.25 | 0.158 ± 0.1 | -0.133 ± 0.022 |
| 4H:CD87/uPAR | 0.07 ± 0.033 | 0.065 ± 0.014 | 0.0945 ± 0.049 | -0.0055 ± 0.037 | 0.0105 ± 0.021 | -0.0285 ± 0.012 | -0.004 ± 0.0099 | -0.004 ± 0.0085 | -0.0175 ± 0.037 | -0.046 ± 0.023 | -0.027 ± 0.057 | -0.005 ± 0.031 | -0.019 ± 0.025 | -0.0015 ± 0.028 | -0.005 ± 0.057 | -0.0135 ± 0.036 | 0.016 ± 0.12 | 0.0655 ± 0.044 | 0.037 ± 0.033 | 0.082 ± 0.058 |
| 4H:VEGFR2 | 0.0265 ± 0.029 | 0.0155 ± 0.0064 | 0.019 ± 0.042 | -0.025 ± 0.0099 | -0.0405 ± 0.037 | -0.021 ± 0.025 | -0.035 ± 0.065 | -0.0105 ± 0.035 | -0.0755 ± 0.036 | 0.0005 ± 0.016 | -0.04 ± 0.0099 | -0.0095 ± 0.0078 | 0.0165 ± 0.0064 | 0.0365 ± 0.05 | 0 ± 0.011 | -0.012 ± 0.0071 | -0.0105 ± 0.032 | 0.0245 ± 0.0021 | 0.01 ± 0.024 | 0.027 ± 0.0099 |
| BT:B cell Proliferation | 0.0245 ± 0.0092 | 0.0375 ± 0.0092 | 0.0635 ± 0.035 | 0.013 ± 0.024 | 0.0055 ± 0.00071 | -0.028 ± 0.054 | 0.012 ± 0.0071 | 0.0415 ± 0.019 | 0.055 ± 0.011 | -0.005 ± 0.0042 | -0.0035 ± 0.0078 | 0.011 ± 0.017 | -0.005 ± 0.021 | 0.0115 ± 0.0078 | 0.007 ± 0.0099 | 0.007 ± 0.028 | 0.033 ± 0.0057 | 0.031 ± 0.016 | 0.0425 ± 0.018 | 0.0795 ± 0.005 |
| 4H:CD106/VCAM-1 | 0.016 ± 0.0085 | -0.029 | -0.0155 ± 0.0064 | -0.023 | -0.0235 ± 0.0035 | -0.01 ± 0.03 | -0.0095 ± 0.018 | -0.0195 ± 0.022 | -0.039 ± 0.0099 | -0.005 ± 0.014 | -0.005 ± 0.03 | -0.0045 ± 0.012 | -0.0205 ± 0.00071 | 0.0005 ± 0.021 | -0.0175 ± 0.019 | 0.021 ± 0.045 | -0.032 ± 0.03 | 0.0085 ± 0.028 | -0.004 ± 0.016 | -0.0095 ± 0.023 |
| BF4T:CD90 | -0.0015 ± 0.011 | 0.005 ± 0.0014 | 0.0135 ± 0.0021 | -0.0065 ± 0.0021 | -0.0035 ± 0.021 | -0.0155 ± 0.0035 | -0.023 ± 0.0099 | -0.004 ± 0.0014 | 0.017 ± 0.0071 | 0.0025 ± 0.0092 | 0.009 ± 0.0042 | 0.0175 ± 0.005 | -0.0135 ± 0.0064 | -0.011 ± 0.0085 | -0.0065 ± 0.012 | -0.0015 ± 0.0035 | 0.004 ± 0.0028 | 0.0085 ± 0.0064 | -0.0075 ± 0.00071 | 0.0075 ± 0.019 |
| LPS:CD142/Tissue Factor | -0.0135 ± 0.00071 | -0.0265 ± 0.019 | -0.0105 ± 0.0092 | -0.0585 ± 0.0092 | 0.0025 ± 0.032 | -0.002 ± 0.0042 | 0.031 ± 0.054 | -0.029 ± 0.03 | -0.0375 ± 0.083 | 0.0325 ± 0.08 | -0.0085 ± 0.077 | -0.0285 ± 0.081 | -0.0155 ± 0.032 | -0.0245 ± 0.087 | 0.0055 ± 0.012 | 0.0385 ± 0.018 | 0.034 ± 0.0057 | -0.0095 ± 0.019 | -0.004 ± 0.0028 | -0.002 |
| SAg:CD69 | -0.013 ± 0.0014 | -0.0035 ± 0.018 | 0.0035 ± 0.016 | -0.002 ± 0.028 | 0.0025 ± 0.013 | -0.0065 ± 0.023 | 0 ± 0.013 | -0.0405 ± 0.00071 | -0.105 ± 0.067 | -0.0125 ± 0.0064 | -0.016 ± 0.013 | 0.005 ± 0.0042 | -0.01 ± 0.05 | -0.001 ± 0.045 | -0.027 ± 0.023 | -0.023 ± 0.02 | -0.007 ± 0.014 | -0.0075 ± 0.013 | -0.002 ± 0.014 | -0.002 ± 0.021 |
| LPS:CD141/Thrombomodulin | -0.03 ± 0.0014 | -0.01 ± 0.0071 | -0.036 ± 0.031 | -0.016 ± 0.03 | -0.0075 ± 0.0064 | -0.0155 ± 0.037 | 0.0245 ± 0.025 | 0.001 ± 0.04 | -0.0235 ± 0.0078 | 0.002 ± 0.0071 | -0.022 ± 0.021 | -0.0355 ± 0.032 | 0.0115 ± 0.019 | -0.015 ± 0.025 | -0.013 ± 0.037 | -0.0095 ± 0.042 | 0.0325 ± 0.0021 | -0.0225 ± 0.028 | -0.0215 ± 0.023 | -0.025 ± 0.044 |
| BE3C:IL-1alpha | 0.0315 ± 0.023 | 0.0055 ± 0.016 | -0.237 ± 0.2 | -0.015 ± 0.011 | -0.003 ± 0.0042 | 0.0045 ± 0.0064 | -0.0135 ± 0.0021 | -0.0005 ± 0.0078 | -0.165 ± 0.021 | -0.014 ± 0.027 | -0.0295 ± 0.005 | -0.0045 ± 0.016 | -0.008 ± 0.013 | 0.0405 ± 0.042 | -0.0015 ± 0.021 | -0.0035 ± 0.0035 | -0.003 ± 0.021 | 0.022 ± 0.0042 | 0.02 ± 0.0071 | -0.0105 ± 0.03 |
| SAg:Proliferation | 0.001 ± 0.031 | 0.0185 ± 0.011 | 0.0675 ± 0.00071 | -0.05 ± 0.071 | -0.0255 ± 0.033 | -0.001 ± 0.0014 | -0.007 ± 0.03 | 0.023 ± 0.033 | 0.0095 ± 0.043 | -0.019 ± 0.0071 | -0.0445 ± 0.033 | -0.0275 ± 0.013 | 0.0015 ± 0.0064 | 0.0185 ± 0.0092 | -0.0415 ± 0.011 | -0.033 ± 0.0057 | -0.0835 ± 0.1 | 0.0005 ± 0.0021 | 0.0495 ± 0.0035 | 0.066 ± 0.051 |
